Counter-ions that a name gives are not always drawn.
Key:
Lot6p [1] = target: T1, Lot6p (Saccharomyces cerevisiae, UniProt Q07923); assay: stopped-flow oxidation of reduced enzyme at […] nm; format: biochemical
T1 sequence (Q07923 1-191): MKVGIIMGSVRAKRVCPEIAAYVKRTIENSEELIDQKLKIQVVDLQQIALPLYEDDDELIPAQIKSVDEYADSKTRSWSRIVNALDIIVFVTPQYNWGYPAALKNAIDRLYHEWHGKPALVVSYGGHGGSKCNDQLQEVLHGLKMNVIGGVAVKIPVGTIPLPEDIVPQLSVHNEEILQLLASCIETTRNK

Lot6p [2] = target: T1, Lot6p; format: biochemical

| SMILES | k2 (Lot6p [1]) [M⁻¹ s⁻¹] | Kd (Lot6p [2]) [mM] |
| --- | --- | --- |
| O=C1C=C(S(=O)(=O)O)c2ccccc2C1=O [1,2-Napthoquinone-4-sulfonic acid, Na salt] | 142000 | – |
| O=C1C=CC(=O)C=C1 [1,4-Benzoquinone] | 1.03e+07 | – |
| O=C1C=C(O)C(=O)c2ccccc21 [2-Hydroxy-1,4-naphthoquinone] | 7580 | – |
| COC1=C(OC)C(=O)C(C)=CC1=O [Coenzyme Q0] | 6.45e+06 | – |
| CC1=CC(=O)c2ccccc2C1=O [Menadione] | 677000 | – |
| NC(=O)C1=CN([C@@H]2O[C@H](COP(=O)(O)OP(=O)(O)OC[C@H]3O[C@@H](n4cnc5c(N)ncnc54)[C@H](O)[C@@H]3O)[C@@H](O)[C@H]2O)C=CC1 [NADH] | – | 9.6 ± 2.4 |
| NC(=O)C1=CN([C@@H]2O[C@H](COP(=O)(O)OP(=O)(O)OC[C@H]3O[C@@H](n4cnc5c(N)ncnc54)[C@H](OP(=O)(O)O)[C@@H]3O)[C@@H](O)[C@H]2O)C=CC1 [NADPH] | – | 12.5 ± 1.1 |
| O=C1c2ccccc2C(=O)c2c1cccc2S(=O)(=O)O [Na-anthraquinone, α-sulfonate] | 1810 | – |

Reference: PMC3004048 (Biochemistry, 2009)
